Results taken from patent US20080213223A1, “Systemic viral/ligand gene delivery system and gene therapy” (SynerGene Therapeutics, Inc., priority 1998, published 2008).

Key:
[1] = test system: B16 mouse melanoma lung metastases; experiment: B16 mouse melanoma lung metastases model with cisplatin; assay type: in vivo, C57/BL/6 mice; conditions: agent alone
From the text: FIGS. 5A-H. Chemosensitization of B16 mouse lung metastases to cisplatin (CDDP) by systemically delivered, tumor-targeted adenoviral-p53. The metastases were induced in normal, syngeneic C57/Bl/6 mice by the intravenous injection of 1×10^5 cells. Four days later treatment was begun. Tf-Adp53 and control Tf-AdLacZ were produced at the ratio of 1.5×10^5 Tf molecules/virion. 1×10^10 viral particles/mouse/injection (equivalent to 3×10^8 pfu) of either Adp53, Tf-Adp53 or Tf-AdLacZ were i.v. administered 3 times/week to a total of 12-13 doses. CDDP was intraperitoneally injected at 3-5 mg/kg every 2-4 days for a total of 8-13 doses. The lungs were excised from the animals after one round of treatment. Lungs from animal treated with: No treatment (FIGS. 5A and 5E); CDDP alone (FIG. 5B); untargetted Ad-p53 plus CDDP (FIG. 5C); Tf-LacZ plus CDDP (FIG. 5F); Tf-Adp53 alone (FIG. 5G); Tf-Adp53 plus CDDP (FIGS. 5D and 5H).
The ability of the ligand-targeted, viral p53 delivery system to sensitize tumor cells to chemotherapy in an immune competent animal model was examined. The model chosen for these studies was the B16 mouse melanoma lung metastases model. In multiple experiments, B16 cells were injected, via the tail vein into immune-competent C57/BL/6 mice. In this model, tumor colonies in the lung are easily visible within two-three weeks, due to the expression of melanin by the tumor cells. […]

[2] = test system: MDA-MB-435 xenograft tumors; experiment: MDA-MB-435 xenograft tumor growth with docetaxel (Taxotere); assay type: in vivo, athymic nude (NCr nu-nu) mice; conditions: agent alone
From the text: Additionally, since chemotherapy is often the treatment of choice for breast cancer, this experiment tested the ability of the delivery system of this invention to sensitize established human breast cancer xenograft tumors to the commonly used chemotherapeutic agent docetaxel (Taxotere). Xenografts were induced in 4-6 week old female athymic nude (NCr nu-nu) mice by the subcutaneous injection of 2.5×10^6 MDA-MB-435 cells in the mammary fat pad of each animal. Tumors were allowed to develop to a size of 40-50 mm^3. The targeted adenovirus, designated Tf Adp53, was prepared by mixing transferrin with adenovirus carrying DNA encoding wt p53 as described in Example 1. The animals were divided into five groups: (i) Untreated (−) Taxotere; (ii) Taxotere alone, (iii) Untargeted Adp53 (+) Taxotere; (iv) Targeted Adp53 (−) Taxotere; (v) Targeted Adp53 (+) Taxotere. The mice were i.v. injected, via the tail vein, every three to four days with 5×10^10 pt/mouse/injection of either targeted (an admixture of Tf ligand and virus was injected) or untargeted (no ligand) Adp53. A total of 12 injections were administered. The day after the initial viral injection, drug treatment was started. The animals were given Taxotere i.v. at a dose of 7.5 mg/kg every three or four days to a total of 11 injections. The tumor sizes were measured weekly in a blinded manner on a total of 6-8 tumors/group. […]

Compound	effect on lung tumor colonies compared to untreated animals [1]	effect on tumor growth [2]
[NH2][Pt]([NH2])([Cl])[Cl] [CDDP, cisplatin]	some effect	
CC(=O)O[C@@]12CO[C@@H]1C[C@H](O)[C@@]1(C)C(=O)[C@H](O)C3=C(C)[C@@H](OC(=O)[C@H](O)[C@@H](NC(=O)OC(C)(C)C)c4ccccc4)C[C@@](O)([C@@H](OC(=O)c4ccccc4)[C@H]21)C3(C)C [Taxotere, docetaxel]		some growth inhibition
